Assay results taken from US10544138B2, “Tricyclic kinase inhibitors of MELK and methods of use” (Dana-Farber Cancer Institute, Inc., priority 2015, dated 2020).

Columns and labels:
Aurora B = Aurora B (Homo sapiens, UniProt Q96GD4); assay: Recombinant mitotic kinase assay, Aurora B; assay type: biochemical; conditions: recombinant kinases
Experimental: (§1) […] assays were performed with recombinant protein of the indicated mitotic kinase (left) and AMPK family kinases (right) in the presence of THZ-4-63-1. […] Cells were treated with nocodazole (100 ng/ml) for 18 h or not treated (Asyn., asynchronous). Nocodazole-arrested mitotic cells (M) were isolated via shake-off. The attached cells enriched in G2 phase (G2) were harvested. A portion of the mitotic cells were washed off nocodazole and released into G1 phase after 4 hours of incubation (G1). […] In Panel D, mitotic lysates were prepared from the indicated cells, and treated with λ-phosphatase at 30° C. In Panel E, nocodazole-arrested mitotic cells were treated with increasing concentration of THZ-4-63-1 for 30 min. Cell lysates were subjected to immunoblotting.
(§2) To discover a selective MELK inhibitor, a few molecule scaffolds with the potential of binding to MELK were identified, including 2,4-disubstituted pyrimidines and benzonaphthyridinones. […] To investigate if THZ-4-63-1 confers selective inhibition on MELK, we tested its effect on other mitotic kinases. In assays using recombinant kinases, MELK kinase activity was 20-fold more sensitive to THZ-4-63-1, than that of Aurora A, Aurora B, CDK1, or PLK1 (FIG. 1B).

CDK1 = CDK1 (Homo sapiens, UniProt P06493); assay: Recombinant mitotic kinase assay, CDK1; assay type: biochemical; conditions: recombinant kinases
Experimental: as §1, §2

NUAK1 = molecular target: T1, NUAK1 (Homo sapiens, UniProt O60285); assay: Recombinant AMPK family kinase assay, NUAK1; assay type: biochemical; conditions: recombinant kinases
T1 sequence (O60285 1-661): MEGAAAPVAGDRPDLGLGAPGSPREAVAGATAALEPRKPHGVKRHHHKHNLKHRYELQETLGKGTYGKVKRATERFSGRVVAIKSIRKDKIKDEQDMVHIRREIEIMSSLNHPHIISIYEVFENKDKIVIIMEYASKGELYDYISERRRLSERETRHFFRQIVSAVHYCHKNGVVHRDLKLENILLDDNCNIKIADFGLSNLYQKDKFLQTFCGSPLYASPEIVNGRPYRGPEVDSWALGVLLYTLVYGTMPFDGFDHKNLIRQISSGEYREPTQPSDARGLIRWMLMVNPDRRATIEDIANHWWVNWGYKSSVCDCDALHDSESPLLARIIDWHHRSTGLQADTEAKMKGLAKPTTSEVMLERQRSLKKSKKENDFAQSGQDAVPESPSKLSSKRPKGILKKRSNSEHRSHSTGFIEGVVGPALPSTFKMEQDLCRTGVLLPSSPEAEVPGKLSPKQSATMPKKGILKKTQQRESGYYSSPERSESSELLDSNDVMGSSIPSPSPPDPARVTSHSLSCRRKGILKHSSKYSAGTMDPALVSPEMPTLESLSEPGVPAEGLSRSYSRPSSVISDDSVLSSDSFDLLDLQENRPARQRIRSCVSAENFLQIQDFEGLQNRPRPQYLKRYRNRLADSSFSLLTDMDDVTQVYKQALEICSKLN
Experimental: as §1, §2

[1] = test system: Histone H3 phosphorylation at Thr3; assay: Histone H3 Thr3 phosphorylation in arrested mitotic cells, immunoblotting; assay type: cell-based; conditions: paclitaxel- or nocodazole-arrested mitotic cells, 30 min, with MG132
Experimental: Cell lysates were prepared for immunoblotting. […] HeLa cells were treated with DMSO or THZ-4-63-1 (5 μM) for 4 h followed by 1 h treatment of MG132 (10 μM). Cells were fixed and stained with anti-H3T3ph and anti-CREST. […] Cells were treated as in FIG. 2, Panel D, and additionally treated with MG132 (10 μM) for 1 h before fixation. The histogram indicates the quantification of H3S10ph signal. […] MCF-10A cells stably expressing empty vector (EV) or MELK were fixed for immunostaining. Images were captured with identical exposure time. H3T3ph intensity was quantified by the use of ImageJ. […] Recombinant MELK protein (kinase domain) was incubated with recombinant Histone H3 for 30 min at 30° C. Samples were subjected to immunoblotting using the indicated antibodies. […] Cells stably expressing GFP-MELK were fixed by formaldehyde and stained with anti-H3S10ph. […] Asynchronized (Async.) or nocodazole-arrested mitotic cells were subjected to fractionation, with sample prepared for immunoblotting. Panels H and I are images showing that MELK inhibition impairs the localization of chromosome passenger complex (CPC), indicated by the immunofluorescence detecting Survivin (G) and Aurora B (H). In addition to the presence of doxycyclin or THZ-4-63-1, cells were treated with nocodazole (0.33 μM) and MG132 (10 μM) for 3 h before fixation.
Cell lysates were prepared for immunoblotting. […]

U2OS-(H2B-GFP) cells = assay: Mitotic slippage, time-lapse imaging of U2OS-(H2B-GFP) cells; assay type: cell-based, human; conditions: 5 μM, 4 h exposure
Experimental: Mitotic cells were treated with THZ-4-63-1 at indicated concentrations for 4 h. Cells were collected for immunoblotting. Panel B contains time-lapse images of U2OS-(H2B-GFP) cells treated with THZ-4-63-1 (5 μM). […] Panel C contains blots showing proteasome-mediated degradation of Cyclin B1, Aurora B and MELK in THZ-4-63-1-induced mitotic slippage. Mitotic cells were treated as in Panel A with THZ-4-63-1 (5 μM), or MG132 (10 μM), or both for 4 h. Panel D contains a graph showing quantification of cell proliferation in the indicated breast cancer cell lines, which were treated with vehicle control or THZ-4-63-1 for one week (Top) and also contains bright-field images acquired from control cells or cells treated with THZ-4-63-1 (111 nM) (Bottom). […] Cells were treated with indicated drugs, and harvested in ten days for quantification of cell growth. The bold curve depicts the theoretic prediction of an additive action between paclitaxel and THZ-4-63-1.
Centromeric localization of CPC has been implicated in checkpoint signaling^8. […] We further found an impaired spindle checkpoint in cells with MELK knockdown (FIG. 9C).

Sequence of Aurora B (Q96GD4 whole entry): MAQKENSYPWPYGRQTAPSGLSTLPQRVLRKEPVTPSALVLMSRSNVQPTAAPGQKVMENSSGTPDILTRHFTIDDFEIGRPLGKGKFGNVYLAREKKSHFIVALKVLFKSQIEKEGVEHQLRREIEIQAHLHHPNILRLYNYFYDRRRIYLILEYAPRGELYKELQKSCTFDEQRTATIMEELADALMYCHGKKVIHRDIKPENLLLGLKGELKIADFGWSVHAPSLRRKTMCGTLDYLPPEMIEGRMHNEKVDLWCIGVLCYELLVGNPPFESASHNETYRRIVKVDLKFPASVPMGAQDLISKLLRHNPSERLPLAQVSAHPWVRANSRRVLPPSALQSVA
Sequence of CDK1 (P06493 whole entry, species assumed): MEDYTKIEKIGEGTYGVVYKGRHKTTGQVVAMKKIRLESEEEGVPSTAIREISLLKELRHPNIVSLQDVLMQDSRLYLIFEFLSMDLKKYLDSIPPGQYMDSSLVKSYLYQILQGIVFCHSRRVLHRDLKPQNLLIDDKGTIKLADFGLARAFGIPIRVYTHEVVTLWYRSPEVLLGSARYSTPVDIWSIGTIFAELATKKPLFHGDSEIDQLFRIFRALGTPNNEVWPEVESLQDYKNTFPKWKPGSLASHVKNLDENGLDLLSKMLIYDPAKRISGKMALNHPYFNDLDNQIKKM
Sequence of CDK1 (P14635 whole entry partner, species assumed): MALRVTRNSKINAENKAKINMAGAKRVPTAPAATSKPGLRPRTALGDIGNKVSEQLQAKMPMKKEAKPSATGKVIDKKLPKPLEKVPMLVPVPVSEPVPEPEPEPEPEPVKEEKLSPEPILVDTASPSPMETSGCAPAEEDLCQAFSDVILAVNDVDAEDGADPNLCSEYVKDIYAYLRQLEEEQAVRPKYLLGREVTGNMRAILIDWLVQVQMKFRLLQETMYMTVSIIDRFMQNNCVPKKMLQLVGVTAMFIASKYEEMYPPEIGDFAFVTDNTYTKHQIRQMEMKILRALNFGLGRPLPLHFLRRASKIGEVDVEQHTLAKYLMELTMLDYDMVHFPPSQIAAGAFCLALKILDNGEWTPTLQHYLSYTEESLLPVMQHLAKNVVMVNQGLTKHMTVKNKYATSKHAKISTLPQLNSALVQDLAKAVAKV

MELK kinase activity more sensitive than that of Aurora B (Aurora B): 20 fold
MELK kinase activity more sensitive than that of CDK1 (CDK1): 20 fold
Selectivity for MELK over NUAK1 (NUAK1): preferentially targets MELK
Compound: CN(C)Cc1ccc(-n2c(=O)ccc3cnc4ccc(-c5cc(Cl)c(O)c(Cl)c5)cc4c32)cc1 [THZ-4-63-1]
Histone H3 phosphorylation at Thr3 [1]: strong suppression
Cells undergoing mitotic slippage (U2OS-(H2B-GFP) cells): nearly half
